Measured values: PubChem BioAssay AID212 (DTP/NCI, 2004)
“And” between values parts separate entries of the source, which are not always exact repeats. Equal values may be shown once. Inconclusive results are not listed.

System: BDF1 mice, colon carcinoma 38 sc, T/C %
Assay: NCI In Vivo Anticancer Drug Screen. Data for tumor model Colon Carcinoma 38 (subcutaneous) in B6D2F1 (BDF1) mice
Conditions: endpoint: median tumor weight (est.), higher = larger tumour
In short: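 Mice with transplanted tumors are treated with compound or vehicle. Survival or tumor size is then measured in both groups. The ratio of treated to control gives the reported figure.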

[1] = dose: 25.0 mg/kg/injection, schedule: Q07DX002 (ip), vehicle: saline with Tween-80
[2] = dose: 50.0 mg/kg/injection, schedule: Q07DX002 (ip), vehicle: saline with Tween-80
[3] = dose: 100.0 mg/kg/injection, schedule: Q07DX002 (ip), vehicle: saline with Tween-80
[4] = dose: 100.0 mg/kg/injection, schedule: Q07DX002 (ip), vehicle: suspension in saline
[5] = dose: 200.0 mg/kg/injection, schedule: Q07DX002 (ip), vehicle: suspension in saline
[6] = dose: 1.25 mg/kg/injection, schedule: Q07DX002 (ip), vehicle: saline
[7] = dose: 2.5 mg/kg/injection, schedule: Q07DX002 (ip), vehicle: saline
[8] = dose: 5.0 mg/kg/injection, schedule: Q07DX002 (ip), vehicle: saline
[9] = dose: 10.0 mg/kg/injection, schedule: Q07DX002 (ip), vehicle: saline
[10] = dose: 25.0 mg/kg/injection, schedule: Q07DX002 (ip), vehicle: Klucel (hydroxypropylcellulose) (HPC)
[11] = dose: 50.0 mg/kg/injection, schedule: Q07DX002 (ip), vehicle: Klucel (hydroxypropylcellulose) (HPC)
[12] = dose: 100.0 mg/kg/injection, schedule: Q07DX002 (ip), vehicle: Klucel (hydroxypropylcellulose) (HPC)
[13] = dose: 200.0 mg/kg/injection, schedule: Q07DX002 (ip), vehicle: Klucel (hydroxypropylcellulose) (HPC)
[14] = dose: 400.0 mg/kg/injection, schedule: Q07DX002 (ip), vehicle: Klucel (hydroxypropylcellulose) (HPC)
[15] = dose: 800.0 mg/kg/injection, schedule: Q07DX002 (ip), vehicle: Klucel (hydroxypropylcellulose) (HPC)
[16] = dose: 12.5 mg/kg/injection, schedule: Q07DX002 (ip), vehicle: Klucel (hydroxypropylcellulose) (HPC)
[17] = dose: 25.0 mg/kg/injection, schedule: Q07DX002 (ip), vehicle: saline
[18] = dose: 50.0 mg/kg/injection, schedule: Q07DX002 (ip), vehicle: saline
[19] = dose: 12.5 mg/kg/injection, schedule: Q07DX002 (ip), vehicle: saline

`Cc1cc2c(=O)c3ccccc3oc2c(C(=O)O)c1C` was tested, and the T/C (dose: 50.0 mg/kg/injection, schedule: Q07DX002 (ip), vehicle: sodium bicarbonate) was 69 % of control, the T/C (dose: 100.0 mg/kg/injection, schedule: Q07DX002 (ip), vehicle: sodium bicarbonate) was 42 % of control and the T/C (dose: 200.0 mg/kg/injection, schedule: Q07DX002 (ip), vehicle: sodium bicarbonate) was 37 % of control. For the same compound, the T/C (dose: 400.0 mg/kg/injection, schedule: Q07DX002 (ip), vehicle: sodium bicarbonate) was 44 % of control.
For `Nc1nc(=S)c2ncn(C3CC(O)C(CO)O3)c2[nH]1` (stereo not given), the T/C (dose: 4.0 mg/kg/injection, schedule: Q07DX003 (ip), vehicle: saline with Tween-80) was 63 % of control, the T/C (dose: 5.0 mg/kg/injection, schedule: Q07DX003 (ip), vehicle: saline with Tween-80) was 32 % of control and the T/C (dose: 8.0 mg/kg/injection, schedule: Q07DX003 (ip), vehicle: saline with Tween-80) was 111 % of control. The T/C (dose: 10.0 mg/kg/injection, schedule: Q07DX003 (ip), vehicle: saline with Tween-80) was 22 % of control, the T/C (dose: 16.0 mg/kg/injection, schedule: Q07DX003 (ip), vehicle: saline with Tween-80) was 39 % of control and the T/C (dose: 20.0 mg/kg/injection, schedule: Q07DX003 (ip), vehicle: saline with Tween-80) was 25 % of control. The T/C (dose: 32.0 mg/kg/injection, schedule: Q07DX003 (ip), vehicle: saline with Tween-80) was 89 % of control, the T/C (dose: 40.0 mg/kg/injection, schedule: Q07DX003 (ip), vehicle: saline with Tween-80) was 14 % of control and the T/C (dose: 64.0 mg/kg/injection, schedule: Q07DX003 (ip), vehicle: saline with Tween-80) was 110 % of control. For the same compound, the T/C (dose: 80.0 mg/kg/injection, schedule: Q07DX003 (ip), vehicle: saline with Tween-80) was 4 % of control and the T/C (dose: 128.0 mg/kg/injection, schedule: Q07DX003 (ip), vehicle: saline with Tween-80) was 36 % of control.
For `CCN(CC)CCNc1ccc(C)c2sc3ccc(O)cc3c(=O)c12`, the T/C [1] was 92 % of control, the T/C [2] was 74 % of control and the T/C [3] was 68 % of control. The T/C (dose: 200.0 mg/kg/injection, schedule: Q07DX002 (ip), vehicle: saline with Tween-80) was 33 % of control.
`Nc1nc2c(ncn2C2OC(CO)C(O)C2O)c(=O)[nH]1` (stereo not given) was tested, and the T/C [4] was 100 % of control, the T/C [5] was 117 % of control and the T/C (dose: 400.0 mg/kg/injection, schedule: Q07DX002 (ip), vehicle: suspension in saline) was 94 % of control. The T/C (dose: 800.0 mg/kg/injection, schedule: Q07DX002 (ip), vehicle: suspension in saline) was 105 % of control and the T/C (dose: 1600.0 mg/kg/injection, schedule: Q07DX002 (ip), vehicle: suspension in saline) was 90 % of control.
In the case of `C[PH+](C)C.C[PH+](C)C.[Au]`, the T/C [6] was 99 % of control, the T/C [7] was 84 % of control and the T/C [8] was 87 % of control. For the same compound, the T/C [9] was 65 % of control.
For `CC1=NNC(=O)C1CCO` (stereo not given), the T/C [10] was 97 % of control, the T/C [11] was 95 % of control and the T/C [12] was 69 % of control. For the same compound, the T/C [13] was 72 % of control, the T/C [14] was 55 % of control and the T/C [15] was 77 % of control.
`N=[N+]=CC(=O)OCC(N)C(=O)O` (stereo not given) was tested, and the T/C (dose: 3.12 mg/kg/injection, schedule: Q07DX002 (ip), vehicle: water) was 97 % of control, the T/C (dose: 3.12 mg/kg/injection, schedule: Q07DX003 (ip), vehicle: clinical formulation) was 159 % of control and the T/C (dose: 6.25 mg/kg/injection, schedule: Q07DX002 (ip), vehicle: water) was 117 % of control. The T/C (dose: 6.25 mg/kg/injection, schedule: Q07DX003 (ip), vehicle: clinical formulation) was 110 % of control, the T/C (dose: 12.5 mg/kg/injection, schedule: Q07DX003 (ip), vehicle: clinical formulation) was 88 % of control and the T/C (dose: 25.0 mg/kg/injection, schedule: Q07DX002 (ip), vehicle: water) was 99 % of control. For the same compound, the T/C (dose: 25.0 mg/kg/injection, schedule: Q07DX003 (ip), vehicle: clinical formulation) was 100 % of control and the T/C (dose: 50.0 mg/kg/injection, schedule: Q07DX002 (ip), vehicle: water) was 91 % of control.
In the case of `C[C@]12C=CC(=O)C=C1CC[C@@H]1[C@@H]2C(=O)C[C@@]2(C)[C@H]1CC[C@]2(O)C(=O)CO`, the T/C [16] was 108 % of control, the T/C [10] was 115 % of control and the T/C (dose: 25.0 mg/kg/injection, schedule: Q07DX003 (ip), vehicle: Klucel (hydroxypropylcellulose) (HPC)) was 97 % of control. For the same compound, the T/C [11] was 93 % of control and 102 % of control, the T/C (dose: 50.0 mg/kg/injection, schedule: Q07DX003 (ip), vehicle: Klucel (hydroxypropylcellulose) (HPC)) was 100 % of control and the T/C [12] was 110 % of control. The T/C (dose: 100.0 mg/kg/injection, schedule: Q07DX003 (ip), vehicle: Klucel (hydroxypropylcellulose) (HPC)) was 76 % of control, the T/C [13] was 81 % of control and 101 % of control and the T/C (dose: 200.0 mg/kg/injection, schedule: Q07DX003 (ip), vehicle: Klucel (hydroxypropylcellulose) (HPC)) was 88 % of control. The T/C (dose: 400.0 mg/kg/injection, schedule: Q07DX003 (ip), vehicle: Klucel (hydroxypropylcellulose) (HPC)) was 45 % of control, the T/C [15] was 60 % of control and the T/C (dose: 1200.0 mg/kg/injection, schedule: Q07DX002 (ip), vehicle: Klucel (hydroxypropylcellulose) (HPC)) was 80 % of control.
`CN=C(N)N/N=C(\C)c1ccc2c(c1)Cc1ccccc1-2` was tested, and the T/C (dose: 12.5 mg/kg/injection, schedule: Q07DX002 (ip), vehicle: saline with Tween-80) was 95 % of control and 98 % of control, the T/C [1] was 63 % of control and 85 % of control and the T/C [2] was 83 % of control and 86 % of control. For the same compound, the T/C [3] was 81 % of control and 93 % of control.
For `NC(=O)NO`, the T/C [17] was 99 % of control, the T/C [18] was 69 % of control and the T/C (dose: 100.0 mg/kg/injection, schedule: Q07DX002 (ip), vehicle: saline) was 99 % of control. For the same compound, the T/C (dose: 100.0 mg/kg/injection, schedule: Q07DX003 (ip), vehicle: saline) was 152 % of control, the T/C (dose: 200.0 mg/kg/injection, schedule: Q07DX002 (ip), vehicle: saline) was 78 % of control and the T/C (dose: 200.0 mg/kg/injection, schedule: Q07DX003 (ip), vehicle: saline) was 43 % of control and 60 % of control. The T/C (dose: 400.0 mg/kg/injection, schedule: Q07DX002 (ip), vehicle: saline) was 88 % of control and the T/C (dose: 800.0 mg/kg/injection, schedule: Q07DX003 (ip), vehicle: saline) was 39 % of control.
With `COc1c(CNC(=O)CCl)cc2[nH]c(C)cc2c1CNC(=O)CCl` the T/C [16] was 101 % of control, the T/C [11] was 98 % of control and the T/C [12] was 93 % of control. For the same compound, the T/C [13] was 83 % of control and the T/C [14] was 111 % of control.
With `CC1(C)COCN1COC1CCCCC1` the T/C (dose: 25.0 mg/kg/injection, schedule: Q07DX002 (ip), vehicle: suspension in saline) was 84 % of control, the T/C (dose: 50.0 mg/kg/injection, schedule: Q07DX002 (ip), vehicle: suspension in saline) was 93 % of control and the T/C [4] was 97 % of control. The T/C [5] was 64 % of control.
For `C=C(C)[C@H]1CN[C@H](C(=O)O)[C@H]1CC(=O)O`, the T/C (dose: 0.62 mg/kg/injection, schedule: Q07DX002 (ip), vehicle: saline) was 58 % of control, the T/C [6] was 80 % of control and the T/C [7] was 92 % of control. The T/C [8] was 95 % of control, the T/C (dose: 6.25 mg/kg/injection, schedule: Q07DX002 (ip), vehicle: saline) was 90 % of control and the T/C [9] was 79 % of control. The T/C [19] was 73 % of control, the T/C (dose: 20.0 mg/kg/injection, schedule: Q07DX002 (ip), vehicle: saline) was 90 % of control and the T/C [17] was 90 % of control.
For `COc1nc(=O)n(C2C=CC(=O)O2)cc1F` (stereo not given), the T/C [19] was 117 % of control, the T/C [17] was 113 % of control and the T/C [18] was 109 % of control.
`CCCCc1ccc(-n2c(C)c(COC(=O)NC)c(COC(=O)NC)c2C)cc1` was tested, and the T/C [16] was 88 % of control, the T/C [10] was 66 % of control and the T/C [13] was 60 % of control.
